# Measurements from PMC5613062 (Investigational New Drugs, 2017).
# “Also recorded” adds a separate entry of the source. Where two headings read alike, the source gives them in different places.
# Key:
# p-glycoprotein (PgP) = tested on: p-glycoprotein (PgP); parameters: method as in earlier work; conditions: ref IB; cited from earlier work
# [1] = Phase I safety/tolerability, DLT and MTD: selumetinib + erlotinib 100 mg orally QD in patients with advanced solid tumors
# CYP1A2 = tested on: CYP1A2; parameters: method as in earlier work; conditions: at concentrations up to 50uM; ref IB; cited from earlier work
# [2] = parameters: method as in earlier work; conditions: either formulation of AZD6244; ref IB; cited from earlier work
# CYP2C9 = tested on: CYP2C9; parameters: method as in earlier work; conditions: weak direct inhibitor; ref IB; cited from earlier work
# [3] = tested on: Calu-6 human non-small cell lung cancer xenograft; parameters: method as in earlier work; conditions: AZD6244 3 mg/kg BD; AZD2171 […] QD; ref IB; cited from earlier work
# CYP 2D6 = tested on: CYP 2D6; parameters: method as in earlier work; conditions: at concentrations up to 50uM; ref IB; cited from earlier work
# [4] = parameters: method as in earlier work; conditions: ref IB; cited from earlier work
# [5] = tested on: breast cancer resistance protein (BCRP); parameters: method as in earlier work; conditions: ref IB; cited from earlier work
# CYP 3A4 = tested on: CYP 3A4; parameters: method as in earlier work; conditions: at concentrations up to 50uM; ref IB; cited from earlier work
# CYP 2C19 = tested on: CYP 2C19; parameters: method as in earlier work; conditions: at concentrations up to 50uM; ref IB; cited from earlier work
# [6] = parameters: method as in earlier work; conditions: predominantly via an aneugenic mode of action; ref IB; cited from earlier work
# [7] = tested on: Lovo colorectal cancer xenograft; parameters: method as in earlier work; conditions: ref IB, cited from earlier work
# [8] = parameters: method as in earlier work; conditions: mouse; ref IB; cited from earlier work
# [9] = parameters: method as in earlier work; conditions: mouse, rat and monkey; dosed as free-base or Hyd-Sulfate; ref IB; cited from earlier work
# [10] = Pharmacokinetics alone and in combination, selumetinib + temsirolimus arm; format: in vivo, human; conditions: human, plasma, iv, geometric mean (% CV); for AUC(0-t): read-out: AUC(0–8); for AUC(0–12): read-out: AUC(0–12); for Cmax: read-out: Cmax
# Protocol: (§1) PK parameters were derived using non-compartmental analysis. Cmax and tmax were determined by visual inspection of the plasma concentration-time profiles. AUC(0–12) was calculated by the linear trapezoidal rule. Where more than one maximum occurred, the reported value was assigned to the first occurrence.
# [11] = parameters: method as in earlier work; conditions: dog; ref IB; cited from earlier work
# [12] = parameters: method as in earlier work; conditions: human; ref IB; cited from earlier work
# [13] = parameters: method as in protocol D1532C00004; conditions: protocol rationale for QD dosing; ref protocol D1532C00004; cited from earlier work
# [14] = cited from earlier work
# [15] = ref Study ARRY-0401, cited from earlier work
# [16] = parameters: method as in earlier work; conditions: mice, at dose levels that do not induce maternal toxicity, preliminary; ref IB; cited from earlier work
# CYP 2C8 = tested on: CYP 2C8; parameters: method as in earlier work; conditions: at concentrations up to 50uM; ref IB; cited from earlier work
# [17] = parameters: method as in earlier work; conditions: AZD6244-related material, rat and mouse; ref IB; cited from earlier work
# [18] = tested on: cytochrome P450 (CYP)3A, 1A and 2C; parameters: method as in earlier work; conditions: human hepatocytes, preliminary in vitro data; ref IB; cited from earlier work
# [19] = tested on: SW620 human colorectal cancer xenograft; parameters: method as in earlier work; conditions: ref IB, cited from earlier work
# [20] = Pharmacokinetics alone and in combination, selumetinib + erlotinib arm
# Protocol: as §1
# expressed CYP isoforms = tested on: expressed CYP isoforms; parameters: method as in earlier work; conditions: ref IB; listed as AZD6244; cited from earlier work
# [21] = dosed alone, selumetinib 50 mg cohort (N = 25), temsirolimus 25 mg IV
# [22] = dosed alone, selumetinib 75 mg cohort (N = 6), temsirolimus 25 mg IV
# [23] = dosed in combination, selumetinib 50 mg BID (N = 22) + temsirolimus 25 mg IV
# [24] = dosed in combination, selumetinib 75 mg BID (N = 5) + temsirolimus 25 mg IV
structure (smiles),measurement,setting,value
Cn1cnc2c(F)c(Nc3ccc(Br)cc3Cl)c(C(=O)NOCCO)cc21 [Selumetinib],interaction with p-glycoprotein (PgP),p-glycoprotein (PgP),substrate but not an inhibitor
same,protocol-defined MTD of selumetinib plus erlotinib (part A),"[1]; part A dose escalation, later not tolerated in part B",50 mg BID
same,selumetinib dose recommended for future phase II studies,[1]; plus erlotinib 100 mg QD,100 mg QD
same,MTD of selumetinib in combination with erlotinib,[1]; with erlotinib 100 mg QD,100 mg QD
same,inhibition of CYP1A2,CYP1A2,no inhibition
same,QTc prolongation,[2],no signal for QTc prolongation
same,IC50,CYP2C9,44.7 µM
same,Tumor growth inhibition as a % of control,[3],48.8 % of control
same,inhibition of CYP2D6,CYP 2D6,no inhibition
same,mutagenic or clastogenic potential in vitro,[4],no evidence of mutagenic or clastogenic potential
same,interaction with breast cancer resistance protein (BCRP),[5],substrate but not an inhibitor
same,inhibition of CYP3A4,CYP 3A4,no inhibition
same,inhibition of CYP2C19,CYP 2C19,no inhibition
same,mouse micronucleus result,[6],increase in micronucleated immature erythrocytes (MIE)
same,Tumor growth inhibition as a % of control,"[7]; AZD6244 25 mg/kg BD, Iressa 75 mg/kg QD",40.2 % of control
same,Tumor growth inhibition as a % of control,"[7]; rapamycin experiment, usual monotherapy schedules, doses not given",39 % of control
same,Protein binding,[8],98.9%
same,accumulation on multiple dosing,[9],no/minimal accumulation
same,AUC(0-t),[10]; [21],1840 ng·h/mL
same,AUC(0–12),[10]; [21],2150 ng·h/mL
same,Cmax,[10]; [21],666 ng/mL
same,AUC(0-t),[10]; [22],2990 ng·h/mL
same,AUC(0–12),[10]; [22],3370 ng·h/mL
same,Cmax,[10]; [22],1240 ng/mL
same,AUC(0-t),[10]; [23],1840 ng·h/mL
same,AUC(0–12),[10]; [23],2130 ng·h/mL
same,Cmax,[10]; [23],676 ng/mL
same,AUC(0-t),[10]; [24],2520 ng·h/mL
same,AUC(0–12),[10]; [24],2940 ng·h/mL
same,Cmax,[10]; [24],887 ng/mL
same,Protein binding,[11],94.6%
same,Protein binding,[12],98.4%
same,half-life,[13],~ 6 hours
same,"maximum tolerated dose (MTD), monotherapy",[14]; first-in-human trial of selumetinib monotherapy,75 mg BID
same,recommended phase II monotherapy dose,[14]; in vivo,75 mg BID
same,time at which Cmax attained (median),[15]; post-dose,approximately 1 hour
same,"half-life (t½), median",[15]; terminal elimination phase,approximately 11 hours
same,reproductive toxicology,[16],adverse effects on embryofetal development and survival
same,inhibition of CYP2C8,CYP 2C8,no inhibition
same,binding to melanin,[17],no evidence of binding to melanin
same,penetration into the CNS,[17],minimal
same,"induction of cytochrome P450 (CYP)3A, 1A and 2C",[18],weak inducer
same,Tumor growth inhibition as a % of control,"[19]; AZD6244 25 mg/kg BD, irinotecan 25 mg/kg once weekly, docetaxel 15 mg/kg once weekly",74 % of control
same,Tumor growth inhibition as a % of control,"[19]; temozolamide experiment, usual monotherapy schedules, doses not given",58 % of control
same,Cmax,"[20]; geometric mean (% CV), dosed alone, selumetinib 50 mg cohort (N = 14), erlotinib 100 mg QD",926.5 (69.10) ng/mL
same,Cmax,"[20]; geometric mean (% CV), dosed in combination, selumetinib 50 mg BID (N = 12) + erlotinib 100 mg QD",1334 (51.16) ng/mL
same,Cmax,"[20]; geometric mean, QD cohorts, in combination, selumetinib 50 mg (N = 6) + erlotinib 100 mg QD",942 ng/mL
same,tmax,"[20]; human, plasma, oral",1.25 h
same,AUC(0-t),"[20]; human, plasma, oral, 100 mg, AUC(0–8), geometric mean, QD cohorts, dosed alone, selumetinib 100 mg cohort (N = 6), erlotinib 100 mg QD",4400 ng·h/mL
same,AUC(0-t),"[20]; human, plasma, oral, 100 mg, AUC(0–12), geometric mean, QD cohorts, dosed alone, selumetinib 100 mg cohort (N = 6), erlotinib 100 mg QD",5000 ng·h/mL
same,Cmax,"[20]; human, plasma, oral, 100 mg, Cmax, geometric mean, QD cohorts, dosed alone, selumetinib 100 mg cohort (N = 6), erlotinib 100 mg QD",1800 ng/mL
same,AUC(0-t),"[20]; human, plasma, oral, AUC(0–8), geometric mean (% CV), dosed alone, selumetinib 50 mg cohort (N = 14), erlotinib 100 mg QD",2280 ng·h/mL
same,AUC(0-t),"[20]; human, plasma, oral, AUC(0–8), geometric mean (% CV), dosed alone, selumetinib 75 mg cohort (N = 6), erlotinib 100 mg QD",2860 ng·h/mL
same,AUC(0-t),"[20]; human, plasma, oral, AUC(0–8), geometric mean (% CV), dosed in combination, selumetinib 50 mg BID (N = 12) + erlotinib 100 mg QD",3640 ng·h/mL
same,AUC(0-t),"[20]; human, plasma, oral, AUC(0–8), geometric mean (% CV), dosed in combination, selumetinib 75 mg BID (N = 6) + erlotinib 100 mg QD",4350 ng·h/mL
same,AUC(0-t),"[20]; human, plasma, oral, AUC(0–8), geometric mean, QD cohorts, dosed alone, selumetinib 50 mg cohort (N = 7), erlotinib 100 mg QD",1900 ng·h/mL
same,AUC(0-t),"[20]; human, plasma, oral, AUC(0–8), geometric mean, QD cohorts, dosed alone, selumetinib 150 mg cohort (N = 13), erlotinib 100 mg QD",6780 ng·h/mL
same,AUC(0-t),"[20]; human, plasma, oral, AUC(0–8), geometric mean, QD cohorts, in combination, selumetinib 50 mg (N = 6) + erlotinib 100 mg QD",2600 ng·h/mL
same,AUC(0-t),"[20]; human, plasma, oral, AUC(0–8), geometric mean, QD cohorts, in combination, selumetinib 100 mg (N = 6) + erlotinib 100 mg QD",7070 ng·h/mL
same,AUC(0-t),"[20]; human, plasma, oral, AUC(0–8), geometric mean, QD cohorts, in combination, selumetinib 150 mg (N = 12) + erlotinib 100 mg QD",9190 ng·h/mL
same,AUC(0-t),"[20]; human, plasma, oral, AUC(0–12), geometric mean (% CV), dosed alone, selumetinib 50 mg cohort (N = 14), erlotinib 100 mg QD",2700 ng·h/mL
same,AUC(0-t),"[20]; human, plasma, oral, AUC(0–12), geometric mean (% CV), dosed alone, selumetinib 75 mg cohort (N = 6), erlotinib 100 mg QD",3200 ng·h/mL
same,AUC(0-t),"[20]; human, plasma, oral, AUC(0–12), geometric mean (% CV), dosed in combination, selumetinib 50 mg BID (N = 12) + erlotinib 100 mg QD",4010 ng·h/mL
same,AUC(0-t),"[20]; human, plasma, oral, AUC(0–12), geometric mean (% CV), dosed in combination, selumetinib 75 mg BID (N = 6) + erlotinib 100 mg QD",4830 ng·h/mL
same,AUC(0-t),"[20]; human, plasma, oral, AUC(0–12), geometric mean, QD cohorts, dosed alone, selumetinib 50 mg cohort (N = 7), erlotinib 100 mg QD",2130 ng·h/mL
same,AUC(0-t),"[20]; human, plasma, oral, AUC(0–12), geometric mean, QD cohorts, dosed alone, selumetinib 150 mg cohort (N = 13), erlotinib 100 mg QD",7740 ng·h/mL
same,AUC(0-t),"[20]; human, plasma, oral, AUC(0–12), geometric mean, QD cohorts, in combination, selumetinib 100 mg (N = 6) + erlotinib 100 mg QD",7760 ng·h/mL
same,AUC(0-t),"[20]; human, plasma, oral, AUC(0–12), geometric mean, QD cohorts, in combination, selumetinib 150 mg (N = 12) + erlotinib 100 mg QD",10500 ng·h/mL
same,Cmax,"[20]; human, plasma, oral, Cmax, geometric mean (% CV), dosed alone, selumetinib 75 mg cohort (N = 6), erlotinib 100 mg QD",1050 ng/mL
same,Cmax,"[20]; human, plasma, oral, Cmax, geometric mean (% CV), dosed in combination, selumetinib 75 mg BID (N = 6) + erlotinib 100 mg QD",1660 ng/mL
same,Cmax,"[20]; human, plasma, oral, Cmax, geometric mean, QD cohorts, dosed alone, selumetinib 50 mg cohort (N = 7), erlotinib 100 mg QD",683 ng/mL
same,Cmax,"[20]; human, plasma, oral, Cmax, geometric mean, QD cohorts, dosed alone, selumetinib 150 mg cohort (N = 13), erlotinib 100 mg QD",2450 ng/mL
same,Cmax,"[20]; human, plasma, oral, Cmax, geometric mean, QD cohorts, in combination, selumetinib 100 mg (N = 6) + erlotinib 100 mg QD",2600 ng/mL
same,Cmax,"[20]; human, plasma, oral, Cmax, geometric mean, QD cohorts, in combination, selumetinib 150 mg (N = 12) + erlotinib 100 mg QD",2810 ng/mL
same,CYP isoforms metabolizing AZD6244,expressed CYP isoforms,metabolized by CYP1A2; also recorded: also metabolized by CYP 2C19 and CYP 3A4
